Results reported in patent publication US9056209B2, “Apigenin-containing composition” (Kao Corporation, priority 2009, dated 2015).

Assay: Evaluation of stability of apigenin in composition (apigenin retention ratio by HPLC)
Assay type: physicochemical
Conditions: for Apigenin retention ratio (amount of apigenin stored at 50° C./amount of apigenin stored at −5° C.): apigenin about 9 ppm, stored one month
Protocol: Twenty gram of Roman chamomile was extracted with 200 mL of 50% butanediol for 7 days at room temperature, and then the extract was filtered to obtain 155 mL of a Roman chamomile extract. The evaporation residue in 1 mL of the extract was 18.6 mg, and the amount of apigenin in 1 mL of the extract was 305 ppm. This extract was used as the apigenin-containing extract in the following experiments. BHT was added to each of the solutions of various pH conditions, in an amount of 0, 1, 10, 100 and 500 ppm, respectively, and thus test solutions (final apigenin concentration: about 9 ppm) were prepared. The respective test solutions were stored for one month under the conditions of −5° C. and 50° C., and then the amount of apigenin in each of the solutions was measured by HPLC (Inertsil ODS-3 (internal diameter 3.0 mm, length 150 mm, particle size 5 μm) manufactured by GL Sciences, Inc., eluent: 50% aqueous solution of 25 mM potassium dihydrogen phosphate/50% methanol, column temperature: 40° C., detection: UV 340 nm). The ratio of the amount of apigenin stored at 50° C. with respect to that stored at −5° C. was determined as the apigenin retention ratio.

## O=c1cc(-c2ccc(O)cc2)oc2cc(O)cc(O)c12 [Apigenin, apigenin]
Mass ratio apigenin/BHT about 1 or greater, or pH of the solution less than 7, storage for a long time
  apigenin retention ratio (in words): high retention ratios were maintained
Mass ratio apigenin/BHT about less than 1 (BHT 10 ppm or more) and pH 7 or higher
  apigenin retention ratio (in words): the apigenin retention ratio decreased
pH 6, BHT 0 ppm
  Apigenin retention ratio (amount of apigenin stored at 50° C./amount of apigenin stored at −5° C.): 103%
pH 6, BHT 1 ppm
  Apigenin retention ratio (amount of apigenin stored at 50° C./amount of apigenin stored at −5° C.): 102%
pH 6, BHT 10 ppm
  Apigenin retention ratio (amount of apigenin stored at 50° C./amount of apigenin stored at −5° C.): 98%
pH 6, BHT 100 ppm
  Apigenin retention ratio (amount of apigenin stored at 50° C./amount of apigenin stored at −5° C.): 96%
pH 6, BHT 500 ppm
  Apigenin retention ratio (amount of apigenin stored at 50° C./amount of apigenin stored at −5° C.): 96%
pH 6.5, BHT 0 ppm
  Apigenin retention ratio (amount of apigenin stored at 50° C./amount of apigenin stored at −5° C.): 100%
pH 6.5, BHT 1 ppm
  Apigenin retention ratio (amount of apigenin stored at 50° C./amount of apigenin stored at −5° C.): 94%
pH 6.5, BHT 10 ppm
  Apigenin retention ratio (amount of apigenin stored at 50° C./amount of apigenin stored at −5° C.): 98%
pH 6.5, BHT 100 ppm
  Apigenin retention ratio (amount of apigenin stored at 50° C./amount of apigenin stored at −5° C.): 96%
pH 6.5, BHT 500 ppm
  Apigenin retention ratio (amount of apigenin stored at 50° C./amount of apigenin stored at −5° C.): 99%
pH 7, BHT 0 ppm
  Apigenin retention ratio (amount of apigenin stored at 50° C./amount of apigenin stored at −5° C.): 96%
pH 7, BHT 1 ppm
  Apigenin retention ratio (amount of apigenin stored at 50° C./amount of apigenin stored at −5° C.): 96%
pH 7, BHT 10 ppm
  Apigenin retention ratio (amount of apigenin stored at 50° C./amount of apigenin stored at −5° C.): 98%
pH 7, BHT 100 ppm
  Apigenin retention ratio (amount of apigenin stored at 50° C./amount of apigenin stored at −5° C.): 82%
pH 7, BHT 500 ppm
  Apigenin retention ratio (amount of apigenin stored at 50° C./amount of apigenin stored at −5° C.): 35%
pH 8, BHT 0 ppm
  Apigenin retention ratio (amount of apigenin stored at 50° C./amount of apigenin stored at −5° C.): 98%
pH 8, BHT 1 ppm
  Apigenin retention ratio (amount of apigenin stored at 50° C./amount of apigenin stored at −5° C.): 99%
pH 8, BHT 10 ppm
  Apigenin retention ratio (amount of apigenin stored at 50° C./amount of apigenin stored at −5° C.): 91%
pH 8, BHT 100 ppm
  Apigenin retention ratio (amount of apigenin stored at 50° C./amount of apigenin stored at −5° C.): 73%
pH 8, BHT 500 ppm
  Apigenin retention ratio (amount of apigenin stored at 50° C./amount of apigenin stored at −5° C.): 11%
